Legend:
Experiment in all cases: relative viability (nuclei count vs DMSO), 5 days (fraction); higher = more cells survive
[1] = compound: C1=CC=C(C(=C1)C2=CC=C(C=C2)C3=CSC4=C3C(=C(C(=O)N4)C#N)O)O + O=C(CCCCCCC(=O)Nc1ccccc1)NO [Vorinostat] (partner 1 µM)
Procedure, shortened: (§1)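 Nuclei were stained with Hoechst during a one-step fixation (final 0.05% Triton X-100, 1% formaldehyde, 1 ug/ml Hoechst) carried out 5 days after dosing, then counted on 4× images. The cells, lung cancer lines in 1536-well plates, had been dosed by pin tool the day after seeding with one drug alone or a fixed anchor-drug dose plus five library-drug doses (not always all listed) in √10 steps. Relative viability is the nuclei count in treated wells divided by that in vehicle wells, and each value is the median of duplicate plates.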

[2] = compound: O=C(CCCCCCNC(=O)c1cnc(N(c2ccccc2)c2ccccc2)nc1)NO [Ricolinostat] + O=C(c1cc(Cc2n[nH]c(=O)c3ccccc23)ccc1F)N1CCN(C(=O)C2CC2)CC1 [Olaparib] (partner 8 µM)
Procedure, shortened: as §1

[3] = compound: C1=CC=C(C(=C1)C2=CC=C(C=C2)C3=CSC4=C3C(=C(C(=O)N4)C#N)O)O + C[C@@H](Oc1cc(-c2cnn(C3CCNCC3)c2)cnc1N)c1c(Cl)ccc(F)c1Cl [Crizotinib] (partner 1 µM)
Procedure, shortened: as §1

[4] = compound: O=C(CCCCCCNC(=O)c1cnc(N(c2ccccc2)c2ccccc2)nc1)NO [Ricolinostat] + CC1(C)CCC(c2ccc(Cl)cc2)=C(CN2CCN(c3ccc(C(=O)NS(=O)(=O)c4ccc(N[C@H](CCN5CCOCC5)CSc5ccccc5)c(S(=O)(=O)C(F)(F)F)c4)cc3)CC2)C1 [Navitoclax] (partner 0.5 µM)
Procedure, shortened: as §1

Cell Line	relative viability ([1]; first compound 0.08 µM)	relative viability ([1]; first compound 0.253 µM)	relative viability ([1]; first compound 0.8 µM)	relative viability ([1]; first compound 2.53 µM)	relative viability ([1]; first compound 8 µM)	relative viability ([2]; first compound 0.08 µM)	relative viability ([2]; first compound 0.253 µM)	relative viability ([2]; first compound 0.8 µM)	relative viability ([2]; first compound 2.53 µM)	relative viability ([3]; first compound 0.08 µM)	relative viability ([3]; first compound 0.253 µM)	relative viability ([3]; first compound 0.8 µM)	relative viability ([3]; first compound 2.53 µM)	relative viability ([3]; first compound 8 µM)	relative viability ([4]; first compound 0.08 µM)	relative viability ([4]; first compound 0.253 µM)	relative viability ([4]; first compound 0.8 µM)	relative viability ([4]; first compound 2.53 µM)
NCI-H2342	0.801	0.83	0.871	0.71	0.586	0.444	0.535	0.421	0.46									
SK-LU-1	0.737	0.727	0.655	0.761	0.671	0.371	0.478	0.362	0.382	0.895	0.995	0.837	0.85	0.661	0.863	0.816	0.642	0.502
NCI-H2023	0.677	0.793	0.56	0.725	0.453	0.485	0.447	0.407	0.239	0.546	0.759	0.607	0.701	0.538	0.849	1.01	0.995	0.906
NCI-H1299						0.95	0.914	0.942	0.91	0.878	1.02	0.987	0.968	0.947	0.987	0.987	1.02	1.01
LOU-NH91	0.892	0.926	0.888	0.886	0.848		0.883	0.905	0.858	0.718	0.772	0.792	0.667	0.704		0.777	0.642	0.6
LCLC-103H	0.722	0.81	0.707	0.767	0.728	0.675	0.655	0.771	0.743	1.09	1.17	0.967	1.18	1.02				
SW 1573	0.701	0.723	0.716	0.76	0.59	0.436	0.508	0.534	0.404	0.683	0.796	0.897	0.797	0.61	0.807	0.993	0.901	1.01
NCI-H1755	0.822	0.913	0.735	0.761	0.687	0.826	0.809	0.814	0.739	0.74	0.916	0.738	0.97	0.827	0.864		0.981	0.912
COR-L 105	0.763	0.807	0.805	1.01	0.706	0.61	0.686	0.797	0.962	0.712	1.04	0.646	0.778	0.646	0.688	0.833	0.828	0.722
NCI-H1793	0.58	1.05	0.497	0.634	0.681	0.692	0.825	0.903	0.902							0.547	0.499	0.853
EMC-BAC-2	0.463		0.331	0.435	0.362	0.52	0.442	0.393	0.347	0.741	0.824	0.632	0.821	0.644	1.04	1.09	1.2	1.2
H3255	0.823	0.863		0.886	0.784	0.543	0.529	0.525	0.506	0.806	1.01	0.723	0.873	0.815	0.537	0.495	0.483	0.483
PC-14	0.64	0.863	0.563	0.71	0.567	0.265	0.257	0.267	0.199	0.851	0.859	0.869	1.02	0.907	0.968	0.947	1.05	0.962
NCI-H661	0.803	0.836	0.772	0.84	0.6	0.654	0.75	0.706	0.558		1.11	0.94	1.07	0.952				
HARA		0.792	0.701		0.371	0.855	0.889	0.29	0.482		1.51	1.1	1.05	0.842	1.1	1.1	1.09	1.11
COR-L23	0.404	0.477	0.409	0.38	0.379	0.247	0.315	0.267	0.168	0.577	0.89	0.772	0.644	0.533	0.943	1.07	0.978	0.511
SK-MES-1	1.1	1.17	0.911	1.06	0.923	0.713	0.712	0.691	0.681	1.05	1.05	0.905	1.05	0.951	1.07	1.22	1.21	1.23
NCI-H1395		0.683	0.551	0.618	0.606		0.44	0.479	0.433							1.13	1.32	1.27
NCI-H2170	0.9	0.819	0.921	0.778	0.616	0.569	0.507	0.625	0.539	1.13	1.34	1.25	1.28	0.888	0.607	0.495	0.633	0.662
NCI-H647		0.947	0.58	0.637	0.461	0.446	0.521	0.465	0.261	0.79	1.24	1.23	1.14	0.924	0.806	1.12	1.09	1.09
CAL-12T	0.65	0.817	0.884	0.743	0.643	0.739	0.732	0.701	0.77		0.789	0.441	0.739	0.485	1.04	1.01	1.01	1.11

Cell Line	relative viability ([1]; first compound 0.08 µM)	relative viability ([1]; first compound 0.253 µM)	relative viability ([1]; first compound 0.8 µM)	relative viability ([1]; first compound 2.53 µM)	relative viability ([1]; first compound 8 µM)	relative viability ([2]; first compound 0.08 µM)	relative viability ([2]; first compound 0.253 µM)	relative viability ([2]; first compound 0.8 µM)	relative viability ([2]; first compound 2.53 µM)	relative viability ([3]; first compound 0.08 µM)	relative viability ([3]; first compound 0.253 µM)	relative viability ([3]; first compound 0.8 µM)	relative viability ([3]; first compound 2.53 µM)	relative viability ([3]; first compound 8 µM)	relative viability ([4]; first compound 0.08 µM)	relative viability ([4]; first compound 0.253 µM)	relative viability ([4]; first compound 0.8 µM)	relative viability ([4]; first compound 2.53 µM)
201T	0.874	0.952	0.811	1	0.902	0.785	0.845	0.891	0.806	0.992	1.08	1.06	1.01	1.11	1.21	1.16	1.23	1.24
HCC-366		0.35	0.348	0.309	0.315	0.272	0.309	0.277	0.212	0.245	0.779	0.614	0.599	0.285	0.831	0.957	1.06	0.978
NCI-H1944	0.682	0.637	0.571	0.479	0.478	0.404	0.369	0.308	0.296	1.08	1.19	1.07	1.23	1.04	0.993	0.972	1.04	0.901
NCI-H1651	0.509	0.523	0.583	0.535	0.51	0.194	0.174	0.184	0.164	0.878	0.823	0.851	0.878	0.826	0.913	0.993	1.02	0.854
LCLC-97TM1	0.614	1.42	0.636	0.724	0.431	0.355	0.446	0.486	0.341	0.428	0.65	0.495	0.271	0.191	0.41	0.431	0.485	0.357
LC-2-ad	0.627	0.643	0.705	0.722	0.654	0.699	0.639	0.665	0.285	0.42	0.489	0.452	0.49	0.438	0.535	0.485	0.506	0.334
NCI-H2347	0.507	0.59	0.55	0.539	0.568	0.51	0.604	0.612	0.586	0.717	0.807	0.558	0.658	0.687	0.623	0.739	0.73	0.671
NCI-H2009	0.728	0.715	0.859	0.716	0.638	0.67	0.663	0.623	0.457	0.916	1.03	1.01	1.04	0.955	1.14	1.11	1.09	1.07
NCI-H1650	0.462	0.546	0.498	0.531	0.435	0.767	0.632	0.823	0.579		1.16	0.943	1.06	0.919	0.948	1.19	1.12	0.82
NCI-H650	0.412	0.438	0.422	0.426	0.309	0.376	0.34	0.278	0.22	0.713	1.05	0.633	0.703	0.719				
NCI-H460	0.529	0.339	0.866	0.924	0.582	0.362	0.341	0.377	0.159		1.03	0.955	1.03	0.27	1.12	0.93	1.08	1.21
NCI-H1703							0.426	0.332	0.458	0.452	0.811	0.827	0.844	0.56		0.978	1.05	1.54
SW 900		0.633	0.412	0.406	0.358	0.845	0.836	0.853	0.621									
NCI-H358	0.641	0.647	0.666	0.839	0.484	0.444	0.57	0.61	0.652	0.59	0.478	0.718	0.516	0.553				
NCI-H1563										0.736	0.862	0.884	0.904	0.858				
Calu-6						0.548	0.526	0.562	0.419	0.614	0.967	0.726	0.863	0.635	0.801	0.852	0.803	0.783
EBC-1						0.638	0.618	0.571	0.352	0.202	0.21	0.19	0.199	0.191	0.375	0.358	0.304	0.172
NCI-H522	0.929	0.898	1.06	0.921	0.86	0.61	0.651	0.606	0.676									
NCI-H1648		0.319	0.876	0.593	0.391		0.817	0.407	0.4									
A549							0.252	0.286	0.139	0.493	0.998	0.688	0.885	0.55	1.07	1.18	1.1	1.21
ABC-1	0.813	0.921	1.03	0.956	0.768	0.781	1.05	1.08	1.01	0.743	1.55	1.05	0.928	1				
